Toxic doses and inconclusive results are not listed. Rule as the data show it: active = T/C of 150% or more; inactive = T/C below 125%.
System: L1210 leukemia ip in BDF1 mice, survival T/C
Experiment: NCI In Vivo Anticancer Drug Screen. Data for tumor model L1210 Leukemia (intraperitoneal) in B6D2F1 (BDF1) mice
Details: endpoint: mean survival time, higher = longer survival
In short: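 Transplanted-tumor mice were given test agent; controls received vehicle only. Survival readings from the two groups were divided (treated over control).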

[1] = dose: 100.0 mg/kg/injection, schedule: Q01DX009 (ip), vehicle: saline
[2] = dose: 100.0 mg/kg/injection, schedule: Q04DX003 (ip), vehicle: saline
[3] = dose: 200.0 mg/kg/injection, schedule: Q04DX003 (ip), vehicle: saline
[4] = dose: 400.0 mg/kg/injection, schedule: Q04DX003 (ip), vehicle: saline
[5] = dose: 200.0 mg/kg/injection, schedule: Q01DX009 (ip), vehicle: saline
[6] = dose: 400.0 mg/kg/injection, schedule: Q01DX009 (ip), vehicle: saline
[7] = dose: 200.0 mg/kg/injection, schedule: Q04DX003 (ip), vehicle: saline with Tween-80
[8] = dose: 400.0 mg/kg/injection, schedule: Q04DX003 (ip), vehicle: saline with Tween-80
[9] = dose: 100.0 mg/kg/injection, schedule: Q04DX003 (ip), vehicle: saline with Tween-80
[10] = dose: 100.0 mg/kg/injection, schedule: Q01DX009 (ip), vehicle: Klucel (hydroxypropylcellulose) (HPC)
[11] = dose: 100.0 mg/kg/injection, schedule: Q04DX003 (ip), vehicle: Klucel (hydroxypropylcellulose) (HPC)
[12] = dose: 200.0 mg/kg/injection, schedule: Q01DX009 (ip), vehicle: Klucel (hydroxypropylcellulose) (HPC)
[13] = dose: 200.0 mg/kg/injection, schedule: Q04DX003 (ip), vehicle: Klucel (hydroxypropylcellulose) (HPC)
[14] = dose: 400.0 mg/kg/injection, schedule: Q04DX003 (ip), vehicle: Klucel (hydroxypropylcellulose) (HPC)
[15] = dose: 100.0 mg/kg/injection, schedule: Q01DX001 (ip), vehicle: carboxymethylcellulose (CMC)
[16] = dose: 200.0 mg/kg/injection, schedule: Q01DX001 (ip), vehicle: carboxymethylcellulose (CMC)
[17] = dose: 400.0 mg/kg/injection, schedule: Q01DX001 (ip), vehicle: carboxymethylcellulose (CMC)
[18] = dose: 50.0 mg/kg/injection, schedule: Q01DX001 (ip), vehicle: saline
[19] = dose: 100.0 mg/kg/injection, schedule: Q01DX001 (ip), vehicle: saline
[20] = dose: 400.0 mg/kg/injection, schedule: Q01DX009 (ip), vehicle: Klucel (hydroxypropylcellulose) (HPC)
[21] = dose: 200.0 mg/kg/injection, schedule: Q01DX001 (ip), vehicle: saline
[22] = dose: 100.0 mg/kg/injection, schedule: Q01DX001 (ip), vehicle: Klucel (hydroxypropylcellulose) (HPC)
[23] = dose: 200.0 mg/kg/injection, schedule: Q01DX001 (ip), vehicle: Klucel (hydroxypropylcellulose) (HPC)
[24] = dose: 400.0 mg/kg/injection, schedule: Q01DX001 (ip), vehicle: Klucel (hydroxypropylcellulose) (HPC)
[25] = dose: 400.0 mg/kg/injection, schedule: Q01DX001 (ip), vehicle: saline

Measured: T/C

NOCc1cccc2cccnc12
inactive: dose: 25.0 mg/kg/injection, schedule: Q01DX009 (ip), vehicle: saline 100 % of control | dose: 50.0 mg/kg/injection, schedule: Q01DX009 (ip), vehicle: saline 100 % of control | [1] 97 % of control | [2] 89 % of control | [3] 94 % of control | [4] 96 % of control

COC(=O)C1CCN1C(C)(C)C (stereo not given)
inactive: [1] 95 % of control | [2] 111 % of control | [5] 95 % of control | [3] 105 % of control | [6] 103 % of control | [4] 110 % of control

CC(=O)/C=N/NC(=O)C(O)C(O)C(O)C(O)CO (stereo not given)
inactive: [2] 102 % of control | [3] 94 % of control | [4] 91 % of control

CC(=O)CC(=O)Nc1cc(Cl)c(NC(=O)CC(C)=O)cc1Cl
inactive: [7] 121 % of control | [8] 88 % of control

CN(C)c1ccc(C(O)C(N)=O)cc1 (stereo not given)
inactive: dose: 6.25 mg/kg/injection, schedule: Q01DX001 (ip), vehicle: saline 103 % of control | dose: 12.5 mg/kg/injection, schedule: Q01DX001 (ip), vehicle: saline 94 % of control | dose: 25.0 mg/kg/injection, schedule: Q01DX001 (ip), vehicle: saline 97 % of control

O=C1OC(OC(=O)c2ccccc2)C(Nc2ccccc2)=C1Br (stereo not given)
inactive: [9] 91 % of control | [7] 87 % of control | [8] 94 % of control

C=CCc1ccc(OCCNC(=O)Nc2ccc(C)cc2[N+](=O)[O-])c(OC)c1
inactive: dose: 50.0 mg/kg/injection, schedule: Q01DX009 (ip), vehicle: Klucel (hydroxypropylcellulose) (HPC) 87 % of control | [10] 98 % of control | [11] 91 % of control | [12] 98 % of control | [13] 96 % of control | [14] 96 % of control

NC(N)=NCCCC(=O)O
inactive: [1] 92 % of control | [2] 110 % of control | [5] 94 % of control | [3] 108 % of control | [6] 92 % of control | [4] 103 % of control

C=CC(C)C1C(C)C(Cl)CC(Cl)C1OC(=O)c1ccccc1 (stereo not given)
inactive: dose: 50.0 mg/kg/injection, schedule: Q01DX001 (ip), vehicle: carboxymethylcellulose (CMC) 100 % of control | [15] 112 % of control | [16] 94 % of control | [17] 96 % of control

O=C(O)c1c2ccccc2nc2ccccc12
inactive: [18] 102 % of control | [19] 111 % of control

Cc1ccc(Nc2nc(N)nc(N)c2N)c(C)c1
inactive: dose: 12.0 mg/kg/injection, schedule: Q01DX Z (ip), vehicle: saline 110 % of control

CC1C(N2CCOCC2)CS1(=O)=O (stereo not given)
inactive: [10] 92 % of control | [11] 93 % of control | [12] 94 % of control | [13] 98 % of control | [20] 103 % of control | [14] 98 % of control

CCOC(=O)C(Nc1cccc2ccccc12)C(=O)OCC
inactive: dose: 100.0 mg/kg/injection, schedule: Q04DX002 (ip), vehicle: Klucel (hydroxypropylcellulose) (HPC) 105 % of control | dose: 200.0 mg/kg/injection, schedule: Q04DX002 (ip), vehicle: Klucel (hydroxypropylcellulose) (HPC) 103 % of control | dose: 400.0 mg/kg/injection, schedule: Q04DX002 (ip), vehicle: Klucel (hydroxypropylcellulose) (HPC) 100 % of control

CC(C)(N)CNCC(C)(C)N
inactive: [19] 97 % of control | [21] 111 % of control

CCCN=Cc1ccccc1O.CCCN=Cc1ccccc1O.[Cu]
inactive: dose: 9.5 mg/kg/injection, schedule: Q01DX001 (ip), vehicle: other 94 % of control | dose: 19.0 mg/kg/injection, schedule: Q01DX001 (ip), vehicle: other 100 % of control | dose: 38.0 mg/kg/injection, schedule: Q01DX001 (ip), vehicle: other 97 % of control

O=C(NC1(C(=O)O)CCCC1)C(F)(F)F
inactive: [2] 98 % of control | [3] 118 % of control | [4] 111 % of control

C/C(=C/c1ccc([N+](=O)[O-])cc1)C(=O)O
inactive: [10] 96 % of control | [12] 115 % of control | [20] 107 % of control

CCCNS(=O)(=O)c1ccc(C(N)=S)cc1
inactive: [22] 103 % of control | [23] 108 % of control | [24] 98 % of control

CCCC(C)(CC)C(=O)O (stereo not given)
inactive: dose: 75.0 mg/kg/injection, schedule: Q01DX001 (ip), vehicle: acetone 108 % of control | dose: 150.0 mg/kg/injection, schedule: Q01DX001 (ip), vehicle: acetone 101 % of control | dose: 300.0 mg/kg/injection, schedule: Q01DX001 (ip), vehicle: acetone 98 % of control

Cc1ccc([N+](=O)[O-])cc1[I+]c1ccccc1C(=O)[O-]
inactive: [18] 103 % of control | [19] 106 % of control | [21] 91 % of control | [25] 101 % of control

O=C(C[n+]1cccc(C(=O)Nc2ccccc2)c1)Nc1ccc(Cl)cc1
inactive: dose: 50.0 mg/kg/injection, schedule: Q04DX003 (ip), vehicle: saline 98 % of control | [19] 96 % of control | [2] 102 % of control | [21] 89 % of control | [3] 98 % of control

CC(=O)NC1CCC(=O)C=C1c1ccccc1 (stereo not given)
inactive: [19] 96 % of control | [21] 107 % of control | [25] 94 % of control

CCOC(=O)CC1(C)NC(C(=O)O)C(C)(C)S1 (stereo not given)
inactive: [10] 97 % of control | [20] 97 % of control

O=C1/C(=C\c2ccccc2)Cc2cc3c(cc21)OCO3
inactive: [2] 105 % of control | [3] 113 % of control | [4] 102 % of control

O=C1CCCCCCCCCOC(=O)CCCCCCCCCO1
inactive: [22] 94 % of control | [23] 94 % of control | [24] 91 % of control

COC(=O)c1cc(C)n(C)c(=O)c1CNS(=O)(=O)c1ccc(C)cc1
inactive: dose: 100.0 mg/kg/injection, schedule: Q01DX009 (ip), vehicle: saline with Tween-80 99 % of control | [9] 97 % of control | dose: 200.0 mg/kg/injection, schedule: Q01DX009 (ip), vehicle: saline with Tween-80 100 % of control | [7] 105 % of control | dose: 400.0 mg/kg/injection, schedule: Q01DX009 (ip), vehicle: saline with Tween-80 99 % of control | [8] 108 % of control

CS(=O)(=O)c1ccc2c(c1)-c1ccc(N)cc1C2=O
inactive: [15] 117 % of control | [16] 102 % of control | [17] 102 % of control

COc1cccc(C(=O)c2cc(O)c3c(c2O)CC(C(C)=O)CC3=O)c1C#N (stereo not given)
inactive: dose: 50.0 mg/kg/injection, schedule: Q01DX001 (ip), vehicle: saline with Tween-80 100 % of control | dose: 100.0 mg/kg/injection, schedule: Q01DX001 (ip), vehicle: saline with Tween-80 94 % of control | dose: 200.0 mg/kg/injection, schedule: Q01DX001 (ip), vehicle: saline with Tween-80 98 % of control
